The target in experiment [1] is Vps34 (PIK3C3 lipid kinase) (Homo sapiens, UniProt Q8NEB9). Kind of experiment: Biochemical Vps34 lipid kinase assay (ADP-Glo). Conditions: for remaining activity at 1 µM: 1 h, read-out: VPS34_1microM_% of cntrl; for remaining activity at 1 µM / VPS34_1microM_% of cntrl: single dose 1 μM compound, residual activity compared to control (DMSO); for IC50: serial half-log dilution 10 μM to 0.3 nM, pIC50 = -log IC50 (M). The protocol: Biochemical Vps34 Lipid Kinase Assay
A non-radiometric kinase assay (ADP-Glo™ Assay, Promega, Madison, Wi, USA) was used for measuring the kinase activity of the PIK3C3 lipid kinase. All kinase assays were performed in 96-well half-area microtiter plates in a 25 μl reaction volume. The reaction cocktail was pipetted in 3 steps in the following order: • 10 μl of ATP solution (in assay buffer, see below) • 5 μl of test sample in 5% DMSO 10 μl of enzyme/substrate mixture
All lipid kinase assays contained 50 mM HEPES (4-(2-hydroxyethyl)-1-piperazineethanesulfonic acid)-NaOH, pH 7.5, 1 mM EGTA ((ethylene glycol tetraacetic acid), 100 mM NaCl, 0.03% CHAPS (3-[(3-Cholamidopropyl)dimethylammonio]-1-propanesulfonate), 2 mM DTT (Dithiothreitol), 20 μM ATP (corresponding to the apparent ATP-Km), kinase (7.6 nM) and substrate (50 μM). The assay for PIK3C3 additionally contained 3 mM MnCl2.
The reaction cocktails were incubated at 30° C. for 60 minutes. The reaction was stopped with 25 μl ADP-Go™ reagent per well. Plates were incubated for 40 minutes at room temperature, followed by addition of 50 μl kinase detection reagent per well and incubation for 60 minutes at room temperature. Signal was determined with a microplate luminescence reader (Victor, Perkin Elmer). The assay was either performed using a single dose of compound (1 μM final concentration in the assay reaction) with resulting data expressed as residual activity compared to control (DMSO), or using a serial (half-log) dilution of compounds starting at 10 μM and down to 0.3 nM (final concentrations in the assay) with data expressed as the pIC50.
(§1) (pIC50 is −log IC50 where IC50 represents the concentration expressed in M at which the test compound gives 50% inhibition)

Experiment [2] concerns the target T1, EF2K (Homo sapiens, UniProt O00418).
T1 construct: host or cells: LN-229 cell lysate
T1 sequence (O00418 1-725): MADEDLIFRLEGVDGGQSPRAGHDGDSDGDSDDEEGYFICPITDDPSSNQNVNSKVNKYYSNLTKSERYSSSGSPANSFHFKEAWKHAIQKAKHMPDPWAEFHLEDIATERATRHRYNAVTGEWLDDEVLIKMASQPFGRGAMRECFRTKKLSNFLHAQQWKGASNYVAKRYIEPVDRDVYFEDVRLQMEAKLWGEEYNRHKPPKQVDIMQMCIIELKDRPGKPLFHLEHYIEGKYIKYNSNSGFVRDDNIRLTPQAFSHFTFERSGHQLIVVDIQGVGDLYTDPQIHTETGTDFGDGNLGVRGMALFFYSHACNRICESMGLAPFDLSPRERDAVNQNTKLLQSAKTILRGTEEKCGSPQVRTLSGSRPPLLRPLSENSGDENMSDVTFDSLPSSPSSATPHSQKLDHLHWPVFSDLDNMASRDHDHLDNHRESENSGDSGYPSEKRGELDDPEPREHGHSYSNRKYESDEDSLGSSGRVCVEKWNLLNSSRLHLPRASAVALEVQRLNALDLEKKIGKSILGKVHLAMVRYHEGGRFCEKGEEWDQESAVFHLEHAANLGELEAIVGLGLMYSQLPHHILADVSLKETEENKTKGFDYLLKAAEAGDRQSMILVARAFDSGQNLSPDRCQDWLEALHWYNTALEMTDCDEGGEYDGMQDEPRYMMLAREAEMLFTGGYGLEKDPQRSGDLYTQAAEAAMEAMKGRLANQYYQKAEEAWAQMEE
Kind of experiment: Biochemical EF2K lysate-based kinase assay (AlphaLISA p-eEF2 Thr56). Conditions: pIC50 = -log IC50 (M), read-out: eEF2K_C_alphalisa pIC50 (converted).
From the text: Biochemical EF2K Lysate-Based Kinase Assay
LN-229 cells were purchased from ATCC (CRL-2611); these are glioblastoma cells. Cell lysates from LN229 were used in this kinase assay to provide both the kinase and the substrate (EF2). The AlphaLISA p-eEF2 (Thr56) detection assay was developed using a sandwich assay format with two specific antibodies recognizing different epitopes of the target, including one antibody against the phosphorylation site of interest. One anti-eEF2 antibody was conjugated onto AlphaLISA Acceptor beads, while the second antibody was biotinylated and captured by streptavidin coated Donor beads.
Compound was mixed with LN-229 cell lysates in the presence of a kinase buffer (e.g. HEPES) at a pH of 6.6, containing 10 mM Mg^2+ (e.g. magnesium acetate) and 10 mM adenosine-tri-phosphate (ATP) and incubated at room temperature for 15 minutes. The kinase reaction was stopped with excess ethylenediaminetetraacetic acid disodium salt and the biotinylated-anti phospho eEF2 antibody (3 nM) was added for 1 hour. Then the anti-EF2 acceptor beads (10 μg/ml) as well as the streptavidin coated donor beads (20 μg/ml) were added for 1 hour, and the AlphaLISA signal was measured in an Envision instrument once, left overnight, and measured again for the final read.
as §1

Experiment [3] addresses T1, EF2K. Kind of experiment: EF2K cell-based assay (P-EF2 AlphaLISA, 2-deoxyglucose stimulated MCF10A cells). Conditions: 2.5 mM 2-deoxyglucose stimulated, P-EF2 Thr56, pIC50 = -log IC50 (M); for IC50: read-out: eEF2K_C_PThr56 pIC50 (converted). Here is the method:
In this assay, 2.5 mM 2-deoxyglucose was used to deplete intracellular ATP and activate 5′ adenosine monophosphate-activated protein kinase (AMPK) in the immortalized epithelial breast cell lines, MCF10A. MCF 10A cells were purchased from ATCC (CRL-10317).
MCF10A cells are seeded at a density of 1.25×10^5 Cells/ml at 100 μl/well in a 96-well plate and incubated for 24 hours (37° C., 5% CO2). Compound is added for 1 hour, and cell are stimulated with 2.5 mM of 2-deoxy-glucose for 4 hours. Medium is then removed, and cells are lysed in an ice-cold buffer M-PER (Thermo Scientific, 78501), containing protease and phosphatase inhibitors. P-EF2 levels are determined in these lysates using the P-EF2 AlphaLISA described above.
as §1

A value given as a limit tells only on which side of the number the result lay.

Sequence of Vps34 (PIK3C3 lipid kinase) (Q8NEB9 whole entry, species assumed): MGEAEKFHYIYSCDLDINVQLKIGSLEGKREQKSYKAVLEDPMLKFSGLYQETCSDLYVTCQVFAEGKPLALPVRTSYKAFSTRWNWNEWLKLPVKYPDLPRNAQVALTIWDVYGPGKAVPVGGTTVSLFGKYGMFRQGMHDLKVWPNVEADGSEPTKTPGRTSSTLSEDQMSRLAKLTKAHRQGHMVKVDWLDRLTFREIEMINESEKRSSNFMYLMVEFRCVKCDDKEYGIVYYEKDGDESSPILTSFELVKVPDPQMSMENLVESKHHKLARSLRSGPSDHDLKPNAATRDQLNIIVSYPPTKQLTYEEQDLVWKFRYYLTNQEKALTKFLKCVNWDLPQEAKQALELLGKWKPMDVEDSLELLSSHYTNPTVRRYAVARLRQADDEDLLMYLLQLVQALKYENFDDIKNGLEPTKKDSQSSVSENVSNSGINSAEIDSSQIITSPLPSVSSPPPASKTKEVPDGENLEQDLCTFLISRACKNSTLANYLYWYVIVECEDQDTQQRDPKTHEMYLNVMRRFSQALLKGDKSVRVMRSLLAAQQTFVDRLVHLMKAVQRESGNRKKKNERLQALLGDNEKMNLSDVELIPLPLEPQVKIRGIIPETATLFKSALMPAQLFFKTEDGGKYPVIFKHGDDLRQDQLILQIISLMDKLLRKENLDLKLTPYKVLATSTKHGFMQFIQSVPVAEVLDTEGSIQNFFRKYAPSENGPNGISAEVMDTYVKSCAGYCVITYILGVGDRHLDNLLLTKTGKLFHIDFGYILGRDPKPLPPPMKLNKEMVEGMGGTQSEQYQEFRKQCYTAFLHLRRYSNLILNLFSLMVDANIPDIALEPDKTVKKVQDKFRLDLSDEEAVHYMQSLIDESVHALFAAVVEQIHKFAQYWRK

On to `CN1CCCN(C)c2ccc(cn2)-c2ccnc(n2)Nc2cccc(c2)CN2CCN(CC1=O)C(=O)C2` [Compound 82], for which, in experiment [1], the remaining activity at 1 µM came out at 10.8%. In addition, the IC50 in experiment [1] is 4.07e-07 M; in experiment [2] it was 3.39e-07 M; in experiment [3] it was more than 3.02e-05 M.
The like results for `NC(=O)c1ccc2cc1CN1CCN(CC1)CC(=O)NCCCNc1ccc(cn1)-c1ccnc(n1)N2` [Compound 15] were, in that order, 1.07%, 5.01e-08 M, 6.03e-07 M and 2.75e-05 M.
As to `O=C1CN2CCN(CC2)Cc2cccc(c2)Nc2nccc(n2)-c2ccc(nc2)N2CC(O)CC2CCN1` (single isomer, unassigned) [Compound 91], the IC50 is 5.13e-06 M in experiment [1], 1.17e-08 M in experiment [2] and 1.41e-06 M in experiment [3].
Regarding `O=C1CNCCNc2ccc(cn2)-c2ccnc(n2)Nc2cccc(c2)CN2CCN1CC2` [Compound 113], in experiment [1], the remaining activity at 1 µM turned out to be 7.65%. In addition, the results for the IC50 in experiment [1], in experiment [2] and in experiment [3] were 1.66e-07 M, 2.82e-06 M and 4.47e-06 M, respectively.
`CN1CCCN(C)c2ccc(cn2)-c2ccnc(n2)Nc2cccc(c2)CN2CCN(CC1=O)CC2COCCO` (single isomer, unassigned) [Compound 105]: the IC50 is 9.77e-07 M in experiment [1], 8.71e-08 M in experiment [2] and 1.78e-05 M in experiment [3]. For the same molecule, the VPS34_1microM_% of cntrl in experiment [1] is 28.59 % of cntrl.
In the case of `O=C1CN2CCN(CC2)Cc2cccc(c2)Nc2nccc(n2)-c2ccc(nc2)CN(C(=O)C2CC2)CCN1` [Compound 44], the remaining activity at 1 µM in experiment [1] was 10.2%. The IC50 is 3.02e-07 M in experiment [1], 8.51e-08 M in experiment [2] and 2.4e-06 M in experiment [3].
The like results for `COCCN1CCNc2ccc(cn2)-c2ccnc(n2)Nc2cccc(c2)CN2CCN(CC2)CC1=O` [Compound 123] were, in that order, 23.6%, 3.89e-06 M, 8.71e-06 M and more than 3.02e-05 M.
For `O=C1CN2CCN(CC2)Cc2cccc(c2)Nc2nccc(n2)-c2ccc(nc2)N2CC(O)CC2CCN1` (single isomer, unassigned) [Compound 96], the IC50 in experiment [1] is 1.32e-07 M; in experiment [2], 6.76e-09 M; in experiment [3] it was 1.26e-06 M.
As for `O=C1CN2CCC(CC2)Cc2cccc(c2)Nc2nccc(n2)-c2ccc(nc2)NCCCN1` [Compound 115], in experiment [1], the remaining activity at 1 µM worked out at 6.01%. For the same molecule, the IC50 was 1.51e-07 M in experiment [1], 2.14e-07 M in experiment [2] and more than 3.02e-05 M in experiment [3].
Regarding `C=CCCN1CCNC(=O)CN2CCN(CC2)Cc2cccc(c2)Nc2nccc(n2)-c2ccc(nc2)C1` [Compound 37], the figures for the IC50 in experiment [1], in experiment [2] and in experiment [3] were 9.55e-08 M, 7.59e-09 M and 1.82e-07 M, respectively.
For `CN1CCCN(C)c2ccc(cn2)-c2ccnc(n2)Nc2ccc(C(N)=O)c(c2)CN2CCN(CC2)CC1=O` [Compound 10], the remaining activity at 1 µM in experiment [1] came to 10.8%. For the same molecule, the results for the IC50 in experiment [1], in experiment [2] and in experiment [3] were 2.88e-07 M, 3.63e-07 M and 1.29e-05 M, respectively.
For `CN1CCCN(C)c2ccc(cn2)-c2ccnc(n2)Nc2ccc(C(=O)O)c(c2)CN2CCN(CC2)CC1=O` [Compound 11], the remaining activity at 1 µM in experiment [1] is 33.3%. Besides, the IC50 in experiment [2] was 4.57e-07 M; in experiment [3] it was more than 3.02e-05 M.
`CN(C)CCOCC1CN2CCN1Cc1cccc(c1)Nc1nccc(n1)-c1ccc(nc1)N(C)CCCN(C)C(=O)C2` (centres unmarked) [Compound 108]: the remaining activity at 1 µM in experiment [1] came out at 25.5%. Moreover, the IC50 in experiment [1] was 5.25e-07 M; in experiment [2], 2.09e-07 M; in experiment [3], 2.45e-05 M.
Regarding `O=C1CN2CCN(CC2)Cc2cccc(c2)Nc2nccc(n2)-c2ccc(nc2)CNCCN1` [Compound 34], the IC50 in experiment [1] is 8.32e-07 M; in experiment [2] it was 5.25e-07 M; in experiment [3] it was approximately 7.24e-06 M.
On to `CN1CCCN(C)c2ccc(cc2)-c2ccnc(n2)Nc2cccc(c2)CN2CCN(CC1=O)C(C(=O)OCc1ccccc1)C2` (centres unmarked) [Compound 92], for which the remaining activity at 1 µM in experiment [1] is 38.3%. In addition, the IC50 in experiment [2] is 8.91e-08 M; in experiment [3], more than 3.02e-05 M.
For `CN1CCCN(C)c2ccc(cn2)-c2ccnc(n2)Nc2cccc(c2)CN2CCN(CC1=O)CC2CO` (single isomer, unassigned) [Compound 53], in experiment [1], the IC50 is 2.75e-07 M and the VPS34_1microM_% of cntrl is given as 13.15 % of cntrl. The IC50 in experiment [2] was 3.39e-08 M. Besides, the “eEF2K_C_PThr56 pIC50” value in experiment [3] is given as less than 4.52.
Turning to `CN1CCCN(C)c2ccc(cn2)-c2ccnc(n2)Nc2cccc(c2)CN2CCN(C)C(C2)C1=O` (centres unmarked) [Compound 75], the remaining activity at 1 µM in experiment [1] was 22.9%. Further, the IC50 is 1.38e-06 M in experiment [1], more than 3.02e-05 M in experiment [2] and more than 3.02e-05 M in experiment [3].
For `CN1CCCN(C)c2ccc(cn2)-c2ccnc(n2)Nc2cccc(c2)S(=O)(=O)N2CCN(CC2)CC1=O` [Compound 27], the remaining activity at 1 µM in experiment [1] was 50.7%. Further, the IC50 in experiment [2] is 2.95e-06 M; in experiment [3] it was more than 3.02e-05 M.
Consider `O=C1CNCCCNc2ccc(cn2)-c2ccnc(n2)Nc2cccc(c2)CN2CCN1CC2` [Compound 112], for which the remaining activity at 1 µM in experiment [1] is 6.25%. Also, the IC50 in experiment [1] was 6.03e-08 M; in experiment [2] it was 3.89e-06 M; in experiment [3] it was 7.41e-06 M.
Regarding `O=C1CN2CCN(CC2)Cc2cccc(c2)Nc2nccc(n2)-c2ccc(nc2)NCC(O)CN1` (single isomer, unassigned) [Compound 24], the IC50 was 1.23e-07 M in experiment [1], approximately 6.46e-07 M in experiment [2] and 1.1e-05 M in experiment [3]. Moreover, in experiment [1], the VPS34_1microM_% of cntrl is reported as 10.54 % of cntrl.
Turning to `CN1CCCN(C)c2ccc(cn2)-c2ccnc(n2)Nc2cccc(c2)CN2CCCN(CC2)CC1=O` [Compound 57], the IC50 in experiment [1] is 2.95e-07 M; in experiment [2], 2.57e-06 M; in experiment [3], more than 3.02e-05 M.
Consider `CC1CN2CCN1Cc1cccc(c1)Nc1nccc(n1)-c1ccc(nc1)NCCCNC(=O)C2` (single isomer, unassigned) [Compound 61], for which the IC50 in experiment [1] was 4.47e-08 M; in experiment [2] it was 1.32e-06 M; in experiment [3] it was more than 3.02e-05 M. The VPS34_1microM_% of cntrl in experiment [1] is recorded as 6.78 % of cntrl.

For the origin of these results see patent US10017509B2, “Macrocylic pyrimidine derivatives” (Janssen Pharmaceutica NV, priority 2014, dated 2018).
